Values after ≈ are worked out from the molar mass of the structure shown. Like-named read-outs stand apart in the source and are kept apart here.
How the values were obtained:
[1] = tested on: OVCAR-5; assay: cells; settings: Homo sapiens, OVCAR-5, 48 h; for CC50: read-out: LC50
[2] = tested on: NCI/ADR-RES; assay: cells; settings: Homo sapiens, 48 h; for CC50: read-out: LC50
[3] = tested on: TK-10; assay: cells; settings: Homo sapiens, TK-10, 48 h; for CC50: read-out: LC50
[4] = Hemolytic activity, spectrophotometric; type: cell-based, human; settings: human, human red blood cells (huRBC), 5% hematocrit, 200 μg/mL, 37 °C
[5] = tested on: IGROV1; assay: cells; settings: Homo sapiens, IGROV-1, 48 h; for CC50: read-out: LC50
[6] = tested on: NCI-H460; assay: cells; settings: Homo sapiens, NCI-H460, 48 h; for CC50: read-out: LC50
[7] = tested on: KM12; assay: cells; settings: Homo sapiens, KM12, 48 h; for CC50: read-out: LC50
[8] = tested on: SR; assay: cells; settings: Homo sapiens, 48 h; for CC50: read-out: LC50
[9] = tested on: M. tuberculosis ATCC 27294; assay: Antitubercular broth microdilution MIC; type: cell-based; settings: Mycobacterium tuberculosis; M. tuberculosis ATCC 27294 (H37Rv); read-out: Minimum inhibitory concentration (MIC)
[10] = tested on: CCRF-CEM; assay: cells; settings: Homo sapiens, 48 h; for CC50: read-out: LC50
[11] = tested on: CAKI-1; assay: cells; settings: Homo sapiens, CAKI-1, 48 h; for CC50: read-out: LC50
[12] = tested on: OVCAR-8; assay: cells; settings: Homo sapiens, OVCAR-8, 48 h; for CC50: read-out: LC50
[13] = tested on: MDA-MB-435; assay: cells; settings: Homo sapiens, MDA-MB-435, 48 h; for CC50: read-out: LC50
[14] = tested on: SW-620; assay: cells; settings: Homo sapiens, SW-620, 48 h; for CC50: read-out: LC50
[15] = tested on: SK-OV-3; assay: cells; settings: Homo sapiens, SK-OV-3, 48 h; for CC50: read-out: LC50
[16] = tested on: T-47D; assay: cells; settings: Homo sapiens, T47D, 48 h; for CC50: read-out: LC50
[17] = tested on: SK-MEL-28; assay: cells; settings: Homo sapiens, SK-MEL-28, 48 h; for CC50: read-out: LC50
[18] = tested on: HL-60(TB); assay: cells; settings: Homo sapiens, HL-60, 48 h; for CC50: read-out: LC50
[19] = tested on: SN12C; assay: cells; settings: Homo sapiens, 48 h; for CC50: read-out: LC50
[20] = tested on: MCF7; assay: cells; settings: Homo sapiens, MCF7, 48 h; for CC50: read-out: LC50
[21] = tested on: K-562; assay: cells; settings: Homo sapiens, K562, 48 h; for GI50: K-562, 48 h; for CC50: read-out: LC50
[22] = tested on: OVCAR-4; assay: cells; settings: Homo sapiens, OVCAR-4, 48 h; for CC50: read-out: LC50
[23] = tested on: SK-MEL-2; assay: cells; settings: Homo sapiens, SK-MEL-2, 48 h; for CC50: read-out: LC50
[24] = tested on: MALME-3M; assay: cells; settings: Homo sapiens, 48 h; for CC50: read-out: LC50
[25] = tested on: DU-145; assay: cells; settings: Homo sapiens, DU-145, 48 h; for CC50: read-out: LC50
[26] = tested on: NCI-H522; assay: cells; settings: Homo sapiens, NCI-H522, 48 h; for CC50: read-out: LC50
[27] = tested on: N. gonorrhoeae ATCC 49226; assay: MIC on GC agar plates; type: cell-based, Neisseria gonorrhoeae
Procedure, shortened: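 N. gonorrhoeae (1 × 10^4 CFU) was spotted onto IsoVitaleX-supplemented (1%) GC agar containing graded compound levels. The lowest inhibitory concentration was recorded as the MIC, with oxidase testing used to verify growth, and each assay was done in duplicate on at least two separate occasions.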

## CN(C)c1nc(NCCNS(=O)(=O)c2ccc(C(=O)/C=C/c3ccccc3)cc2)nc(Nc2ccc(F)cc2)n1 [24a]
[1]
  GI50: 13.3 µM
  CC50: 53.2 µM
[2]
  GI50: 7.33 µM
  CC50: 50.3 µM
[3]
  GI50: 14.6 µM
  CC50: 65.5 µM
[4]
  hemolysis at 24 h, 200 µg/mL: 10.6%
[5]
  GI50: 11.2 µM
  CC50: 50.6 µM
[6]
  GI50: 4.34 µM
  CC50: 56.5 µM
[7]
  GI50: 3.74 µM
  CC50: 54 µM
[8]
  GI50: 2.58 µM
  CC50: > 100 µM
[9]
  MIC: 25 µg/mL (≈ 44.5 µM)
[10]
  GI50: 6.59 µM
  CC50: > 100 µM
[11]
  GI50: 4.75 µM
  CC50: 52.6 µM
[12]
  GI50: 12.2 µM
  CC50: 57.1 µM
[13]
  GI50: 7.44 µM
  CC50: 59.8 µM
[14]
  GI50: 5.56 µM
  CC50: 54.3 µM
[15]
  GI50: 13 µM
  CC50: 68.1 µM
[16]
  GI50: 3.45 µM
  CC50: 41.7 µM
[17]
  GI50: 10.2 µM
  CC50: 48.4 µM
[18]
  GI50: 3.88 µM
  CC50: > 100 µM
[19]
  GI50: 8.2 µM
  CC50: 46.2 µM
[20]
  GI50: 1.99 µM
  CC50: 8.23 µM
[21]
  GI50: 3.34 µM
  CC50: > 100 µM
[22]
  GI50: 4.39 µM
  CC50: 99.3 µM
[23]
  GI50: 10.6 µM
  CC50: 55.4 µM
[24]
  GI50: 12.6 µM
  CC50: 54.5 µM
[25]
  GI50: 12.1 µM
  CC50: 53.2 µM
[26]
  GI50: 5.47 µM
  CC50: 53.6 µM

## COc1cc(/C=C/C(=O)c2ccc(S(=O)(=O)NCCNc3nc(Nc4ccc(F)cc4)nc(N(C)C)n3)cc2)cc(OC)c1OC [24d]
[1]
  GI50: 12.9 µM
  CC50: 55.4 µM
[2]
  GI50: 3.38 µM
  CC50: 56.3 µM
[3]
  GI50: 13.1 µM
  CC50: > 100 µM
[4]
  hemolysis at 24 h, 200 µg/mL: 2.3%
[5]
  GI50: 16.1 µM
  CC50: 59.8 µM
[6]
  GI50: 5.12 µM
  CC50: 50.6 µM
[7]
  GI50: 2.07 µM
[8]
  GI50: 2.42 µM
  CC50: > 100 µM
[9]
  MIC: 50 µg/mL (≈ 76.7 µM)
[10]
  GI50: 3.62 µM
  CC50: > 100 µM
[11]
  GI50: 5.2 µM
  CC50: > 100 µM
[12]
  GI50: 11.1 µM
  CC50: > 100 µM
[13]
  GI50: 2.8 µM
  CC50: 93.9 µM
[14]
  GI50: 1.95 µM
  CC50: 7.43 µM
[15]
  GI50: 21.8 µM
  CC50: > 100 µM
[16]
  GI50: 3.48 µM
  CC50: > 100 µM
[17]
  GI50: 6.13 µM
  CC50: 44.6 µM
[18]
  GI50: 2.64 µM
  CC50: > 100 µM
[19]
  GI50: 5.71 µM
  CC50: 63.6 µM
[20]
  GI50: 1.96 µM
  CC50: 9.34 µM
[21]
  GI50: 2.73 µM
  CC50: > 100 µM
[22]
  GI50: 8.02 µM
  CC50: > 100 µM
[23]
  GI50: 13.5 µM
  CC50: 59.5 µM
[24]
  GI50: 11.9 µM
  CC50: 55.2 µM
[25]
  GI50: 10.9 µM
  CC50: > 100 µM
[26]
  GI50: 6.45 µM
  CC50: 50 µM

## CN(C)c1nc(NCCNS(=O)(=O)c2ccc(C3=Nc4c(N)nc(N)nc4NC(c4ccc(F)cc4)C3)cc2)nc(Nc2ccc(F)cc2)n1 (centres unmarked) [31f]
[1]
  GI50: > 100 µM
  CC50: > 100 µM
[2]
  GI50: > 100 µM
  CC50: > 100 µM
[3]
  GI50: > 100 µM
  CC50: > 100 µM
[4]
  hemolysis at 24 h, 200 µg/mL: 2.4%
[5]
  GI50: 5.01 µM
  CC50: > 100 µM
[6]
  GI50: 4.74 µM
  CC50: > 100 µM
[7]
  GI50: 4.69 µM
  CC50: > 100 µM
[27]
  MIC: 0.25 µg/mL (≈ 0.356 µM)
[27]; Neisseria gonorrhoeae, ATCC49226, read-out: MIC
  MIC: 0.25 µg/mL (≈ 0.356 µM)
[9]
  MIC: 1.2 µg/mL (≈ 1.71 µM)
[10]
  GI50: 3.99 µM
  CC50: > 100 µM
[11]
  GI50: 6.5 µM
  CC50: > 100 µM
[12]
  GI50: 12 µM
  CC50: > 100 µM
[13]
  GI50: 5.93 µM
  CC50: > 100 µM
[14]
  GI50: 8.27 µM
  CC50: > 100 µM
[15]
  GI50: > 100 µM
  CC50: > 100 µM
[16]
  GI50: 4.86 µM
  CC50: > 100 µM
[17]
  GI50: 15.7 µM
  CC50: > 100 µM
[18]
  GI50: 3.12 µM
  CC50: > 100 µM
[20]
  GI50: 3.16 µM
  CC50: 43.7 µM
[21]
  GI50: 2.8 µM
  CC50: > 100 µM
[22]
  CC50: > 100 µM
[23]
  GI50: 8.17 µM
  CC50: 29 µM
[24]
  GI50: 6.28 µM
  CC50: > 100 µM
[25]
  GI50: 52 µM
  CC50: > 100 µM
[26]
  GI50: 34.8 µM
  CC50: > 100 µM

Source: publication PMC11012124, “Synthesis of Novel Triazine-Based Chalcones and 8,9-dihydro-7H-pyrimido[4,5-b][1,4]diazepines as Potential Leads in the Search of Anticancer, Antibacterial and Antifungal Agents” (International Journal of Molecular Sciences, 2024)
